Source: publication PMC4767141, “Discovery of Potent, Orally Bioavailable, Small-Molecule Inhibitors of WNT Signaling from a Cell-Based Pathway Screen” (Journal of Medicinal Chemistry, 2015)

Legend:
PKD2 = target: T1, PKD2 (Homo sapiens, UniProt Q9BZL6); assay: Millipore kinase panel; type: biochemical; conditions: read-out: % Control
T1 construct: purchased Millipore KinaseProfiler (kinases); Cerep (receptors and ion channels)

Clint determination = type: in vitro ADME; conditions: mouse, microsomes, pH 7.4, mouse microsomes, read-out: Clint (μL/min/mg) Mouse
CDK7/CYCLINH/MAT1 = target: T2, CDK7/CYCLINH/MAT1 (Homo sapiens, UniProt P50613); assay: Millipore kinase panel; type: biochemical; conditions: read-out: % Control
T2 construct: purchased Millipore KinaseProfiler (kinases); Cerep (receptors and ion channels)

5-HT2A (h) = target: T3, 5-HT2A (h) (Homo sapiens, UniProt P28223); assay: CEREP binding panel; conditions: antagonist radioligand, read-out: % Inhibition of Control Specific Binding
T3 construct: purchased Millipore KinaseProfiler (kinases); Cerep (receptors and ion channels)

PAK5 = target: T4, PAK5 (Homo sapiens, UniProt Q9P286); assay: Millipore kinase panel; type: biochemical; conditions: read-out: % Control
T4 construct: purchased Millipore KinaseProfiler (kinases); Cerep (receptors and ion channels)
T4 sequence (Q9P286 whole entry): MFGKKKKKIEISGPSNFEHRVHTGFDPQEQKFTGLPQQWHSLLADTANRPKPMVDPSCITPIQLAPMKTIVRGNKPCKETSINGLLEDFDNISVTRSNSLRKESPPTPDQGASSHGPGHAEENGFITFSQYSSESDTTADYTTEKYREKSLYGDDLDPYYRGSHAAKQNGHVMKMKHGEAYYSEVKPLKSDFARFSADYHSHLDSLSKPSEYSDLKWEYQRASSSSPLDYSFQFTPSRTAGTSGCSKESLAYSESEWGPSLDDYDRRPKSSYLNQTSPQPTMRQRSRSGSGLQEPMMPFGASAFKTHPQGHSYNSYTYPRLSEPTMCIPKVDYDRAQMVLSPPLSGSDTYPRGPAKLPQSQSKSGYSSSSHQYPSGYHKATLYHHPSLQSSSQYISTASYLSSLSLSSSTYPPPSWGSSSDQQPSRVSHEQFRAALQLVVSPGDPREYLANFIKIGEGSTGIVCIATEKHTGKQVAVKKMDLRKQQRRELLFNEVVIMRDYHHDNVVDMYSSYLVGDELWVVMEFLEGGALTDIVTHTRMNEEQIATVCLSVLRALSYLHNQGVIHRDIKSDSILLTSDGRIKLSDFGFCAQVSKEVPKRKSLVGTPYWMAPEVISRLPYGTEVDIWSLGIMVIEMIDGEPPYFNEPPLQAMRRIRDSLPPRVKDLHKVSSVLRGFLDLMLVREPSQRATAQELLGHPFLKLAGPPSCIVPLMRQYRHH

EGFR = target: T5, EGFR (Homo sapiens, UniProt P00533); assay: Millipore kinase panel; type: biochemical; conditions: read-out: % Control
T5 construct: purchased Millipore KinaseProfiler (kinases); Cerep (receptors and ion channels)

TAO1 = target: T6, TAO1 (Homo sapiens, UniProt Q7L7X3); assay: Millipore kinase panel; type: biochemical; conditions: read-out: % Control
T6 construct: purchased Millipore KinaseProfiler (kinases); Cerep (receptors and ion channels)

NTS1 (NT1) (h) = target: T7, NTS1 (NT1) (h) (Homo sapiens, UniProt P30989); assay: CEREP binding panel; conditions: agonist radioligand, read-out: % Inhibition of Control Specific Binding
T7 construct: purchased Millipore KinaseProfiler (kinases); Cerep (receptors and ion channels)
T7 sequence (P30989 whole entry): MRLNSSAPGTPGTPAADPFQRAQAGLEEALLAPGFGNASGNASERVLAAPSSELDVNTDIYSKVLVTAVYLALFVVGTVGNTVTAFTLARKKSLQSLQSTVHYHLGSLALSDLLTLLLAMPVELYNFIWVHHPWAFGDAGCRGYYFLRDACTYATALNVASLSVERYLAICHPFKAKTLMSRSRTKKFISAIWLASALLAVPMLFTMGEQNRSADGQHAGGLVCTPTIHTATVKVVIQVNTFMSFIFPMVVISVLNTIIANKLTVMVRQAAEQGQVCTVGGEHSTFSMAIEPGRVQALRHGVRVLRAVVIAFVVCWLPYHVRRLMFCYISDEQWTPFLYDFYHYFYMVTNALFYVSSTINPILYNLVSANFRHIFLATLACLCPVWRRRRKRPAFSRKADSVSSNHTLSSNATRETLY

SKCa channel = assay: CEREP binding panel; conditions: 10 μM, antagonist radioligand
DYRK2 = target: T8, DYRK2 (Homo sapiens, UniProt Q92630); assay: Millipore kinase panel; type: biochemical; conditions: read-out: % Control
T8 construct: purchased Millipore KinaseProfiler (kinases); Cerep (receptors and ion channels)

PAK6 = target: T9, PAK6 (Homo sapiens, UniProt Q9NQU5); assay: Millipore kinase panel; type: biochemical; conditions: read-out: % Control
T9 construct: purchased Millipore KinaseProfiler (kinases); Cerep (receptors and ion channels)

CDK3/CYCLINE = target: T10, CDK3/CYCLINE (Homo sapiens, UniProt Q00526); assay: Millipore kinase panel; type: biochemical; conditions: read-out: % Control
T10 construct: purchased Millipore KinaseProfiler (kinases); Cerep (receptors and ion channels)

DRAK1 = target: T11, DRAK1 (Homo sapiens, UniProt Q9UEE5); assay: Millipore kinase panel; type: biochemical; conditions: read-out: % Control
T11 construct: purchased Millipore KinaseProfiler (kinases); Cerep (receptors and ion channels)

ACK1 = target: T12, ACK1 (Homo sapiens, UniProt Q07912); assay: Millipore kinase panel; type: biochemical; conditions: read-out: % Control
T12 construct: purchased Millipore KinaseProfiler (kinases); Cerep (receptors and ion channels)

FGFR2 = target: T13, FGFR2 (Homo sapiens, UniProt P21802); assay: Millipore kinase panel; type: biochemical; conditions: read-out: % Control
T13 construct: purchased Millipore KinaseProfiler (kinases); Cerep (receptors and ion channels)
T13 sequence (P21802 22-821): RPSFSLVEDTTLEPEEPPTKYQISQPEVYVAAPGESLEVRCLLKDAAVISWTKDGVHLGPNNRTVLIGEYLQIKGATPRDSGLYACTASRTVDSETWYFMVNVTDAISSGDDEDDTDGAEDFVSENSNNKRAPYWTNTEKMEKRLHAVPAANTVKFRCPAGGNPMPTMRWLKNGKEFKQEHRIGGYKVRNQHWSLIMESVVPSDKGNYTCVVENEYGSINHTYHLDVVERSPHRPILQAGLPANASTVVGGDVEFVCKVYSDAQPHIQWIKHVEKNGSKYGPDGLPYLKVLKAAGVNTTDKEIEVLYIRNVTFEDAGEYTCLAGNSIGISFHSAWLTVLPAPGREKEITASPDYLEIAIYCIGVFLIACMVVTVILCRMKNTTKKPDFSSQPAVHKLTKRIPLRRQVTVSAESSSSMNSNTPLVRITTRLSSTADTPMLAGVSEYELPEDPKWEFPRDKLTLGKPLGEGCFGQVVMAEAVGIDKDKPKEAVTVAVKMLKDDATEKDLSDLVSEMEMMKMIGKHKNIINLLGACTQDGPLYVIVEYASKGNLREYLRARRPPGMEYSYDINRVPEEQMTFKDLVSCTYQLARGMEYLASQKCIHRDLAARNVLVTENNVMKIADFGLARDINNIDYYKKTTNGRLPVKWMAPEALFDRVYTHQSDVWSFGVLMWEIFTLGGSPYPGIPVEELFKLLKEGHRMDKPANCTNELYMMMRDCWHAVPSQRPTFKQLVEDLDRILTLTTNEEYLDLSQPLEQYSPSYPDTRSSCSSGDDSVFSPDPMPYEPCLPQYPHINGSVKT

PKG1ALPHA = target: T14, PKG1ALPHA (Homo sapiens, UniProt Q13976); assay: Millipore kinase panel; type: biochemical; conditions: read-out: % Control
T14 construct: purchased Millipore KinaseProfiler (kinases); Cerep (receptors and ion channels)
T14 sequence (Q13976 whole entry): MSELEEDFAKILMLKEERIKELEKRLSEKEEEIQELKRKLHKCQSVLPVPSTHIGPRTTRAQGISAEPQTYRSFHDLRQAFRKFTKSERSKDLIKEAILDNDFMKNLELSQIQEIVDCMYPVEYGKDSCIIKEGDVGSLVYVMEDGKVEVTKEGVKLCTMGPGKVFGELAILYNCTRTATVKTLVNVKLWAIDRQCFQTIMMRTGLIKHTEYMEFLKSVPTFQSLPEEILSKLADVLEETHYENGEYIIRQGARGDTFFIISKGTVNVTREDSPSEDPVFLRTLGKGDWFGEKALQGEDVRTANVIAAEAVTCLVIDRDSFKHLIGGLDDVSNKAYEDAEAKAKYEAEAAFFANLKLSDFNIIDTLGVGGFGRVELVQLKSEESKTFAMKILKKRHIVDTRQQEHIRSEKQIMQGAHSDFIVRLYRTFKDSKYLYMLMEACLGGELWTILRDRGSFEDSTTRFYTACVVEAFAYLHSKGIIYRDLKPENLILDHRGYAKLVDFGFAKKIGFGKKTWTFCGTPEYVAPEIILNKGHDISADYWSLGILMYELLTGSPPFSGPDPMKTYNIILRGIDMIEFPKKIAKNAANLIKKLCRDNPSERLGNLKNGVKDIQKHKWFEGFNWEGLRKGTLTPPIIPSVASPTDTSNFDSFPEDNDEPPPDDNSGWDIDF

DCAMKL2 = target: T15, DCAMKL2 (Homo sapiens, UniProt Q8N568); assay: Millipore kinase panel; type: biochemical; conditions: read-out: % Control
T15 construct: purchased Millipore KinaseProfiler (kinases); Cerep (receptors and ion channels)

FLT3 = target: T16, FLT3 (Homo sapiens, UniProt P36888); assay: Millipore kinase panel; type: biochemical; conditions: read-out: % Control
T16 construct: purchased Millipore KinaseProfiler (kinases); Cerep (receptors and ion channels)
T16 sequence (P36888 27-993): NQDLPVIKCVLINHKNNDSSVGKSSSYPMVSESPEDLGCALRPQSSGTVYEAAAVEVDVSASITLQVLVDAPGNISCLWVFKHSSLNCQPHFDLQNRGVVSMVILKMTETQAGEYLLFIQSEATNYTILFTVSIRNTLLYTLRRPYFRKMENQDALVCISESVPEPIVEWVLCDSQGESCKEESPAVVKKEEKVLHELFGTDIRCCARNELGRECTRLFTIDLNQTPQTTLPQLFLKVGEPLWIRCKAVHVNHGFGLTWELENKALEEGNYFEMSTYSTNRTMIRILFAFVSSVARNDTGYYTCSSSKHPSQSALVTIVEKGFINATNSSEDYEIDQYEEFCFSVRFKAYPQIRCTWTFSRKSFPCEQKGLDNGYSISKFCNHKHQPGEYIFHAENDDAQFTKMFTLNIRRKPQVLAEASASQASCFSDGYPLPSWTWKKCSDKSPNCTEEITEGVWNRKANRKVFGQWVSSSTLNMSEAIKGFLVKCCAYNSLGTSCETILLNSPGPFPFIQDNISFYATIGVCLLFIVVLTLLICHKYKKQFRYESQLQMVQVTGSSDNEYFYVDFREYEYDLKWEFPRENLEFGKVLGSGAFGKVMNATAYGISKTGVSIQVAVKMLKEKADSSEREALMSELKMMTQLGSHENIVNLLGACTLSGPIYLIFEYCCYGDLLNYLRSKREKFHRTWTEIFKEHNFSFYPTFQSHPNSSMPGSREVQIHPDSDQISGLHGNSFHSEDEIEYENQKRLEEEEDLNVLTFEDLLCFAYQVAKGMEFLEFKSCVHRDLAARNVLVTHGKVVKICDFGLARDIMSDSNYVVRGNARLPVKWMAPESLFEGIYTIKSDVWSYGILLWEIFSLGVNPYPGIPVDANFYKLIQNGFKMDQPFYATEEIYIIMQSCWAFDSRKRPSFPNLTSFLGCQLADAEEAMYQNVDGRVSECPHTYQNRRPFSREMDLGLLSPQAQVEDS

PTK5 = target: T17, PTK5 (Homo sapiens, UniProt P42685); assay: Millipore kinase panel; type: biochemical; conditions: read-out: % Control
T17 construct: purchased Millipore KinaseProfiler (kinases); Cerep (receptors and ion channels)

ULK2 = target: T18, ULK2 (Homo sapiens, UniProt Q8IYT8); assay: Millipore kinase panel; type: biochemical; conditions: read-out: % Control
T18 construct: purchased Millipore KinaseProfiler (kinases); Cerep (receptors and ion channels)

M2 (h) = target: T19, M2 (h) (Homo sapiens, UniProt P08172); assay: CEREP binding panel; conditions: antagonist radioligand, read-out: % Inhibition of Control Specific Binding
T19 construct: purchased Millipore KinaseProfiler (kinases); Cerep (receptors and ion channels)
T19 sequence (P08172 whole entry): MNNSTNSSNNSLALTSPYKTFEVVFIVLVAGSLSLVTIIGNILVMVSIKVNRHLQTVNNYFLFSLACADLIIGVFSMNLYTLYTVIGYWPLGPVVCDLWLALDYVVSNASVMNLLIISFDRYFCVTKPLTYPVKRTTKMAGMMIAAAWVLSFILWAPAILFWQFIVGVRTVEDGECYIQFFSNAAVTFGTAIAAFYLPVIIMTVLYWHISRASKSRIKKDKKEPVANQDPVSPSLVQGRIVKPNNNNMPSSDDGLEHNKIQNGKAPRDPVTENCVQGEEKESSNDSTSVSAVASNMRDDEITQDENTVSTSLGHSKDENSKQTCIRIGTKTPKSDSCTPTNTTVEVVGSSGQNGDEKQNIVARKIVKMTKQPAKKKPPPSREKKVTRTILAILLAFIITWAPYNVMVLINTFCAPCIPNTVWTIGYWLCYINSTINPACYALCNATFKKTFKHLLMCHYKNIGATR

GSK3ALPHA = target: T20, GSK3ALPHA (Homo sapiens, UniProt P49840); assay: Millipore kinase panel; type: biochemical; conditions: read-out: % Control
T20 construct: purchased Millipore

PAK3 = target: T21, PAK3 (Homo sapiens, UniProt O75914); assay: Millipore kinase panel; type: biochemical; conditions: read-out: % Control
T21 construct: purchased Millipore KinaseProfiler (kinases); Cerep (receptors and ion channels)

CK1DELTA = target: T22, CK1DELTA (Homo sapiens, UniProt P48730); assay: Millipore kinase panel; type: biochemical; conditions: read-out: % Control
T22 construct: purchased Millipore KinaseProfiler (kinases); Cerep (receptors and ion channels)

PKCIOTA = target: T23, PKCIOTA (Homo sapiens, UniProt P41743); assay: Millipore kinase panel; type: biochemical; conditions: read-out: % Control
T23 construct: purchased Millipore KinaseProfiler (kinases); Cerep (receptors and ion channels)

MTOR/FKBP12 = target: T24, MTOR/FKBP12 (Homo sapiens, UniProt P42345); assay: Millipore kinase panel; type: biochemical; conditions: read-out: % Control
T24 construct: purchased Millipore KinaseProfiler (kinases); Cerep (receptors and ion channels)

PKCETA = target: T25, PKCETA (Homo sapiens, UniProt P24723); assay: Millipore kinase panel; type: biochemical; conditions: read-out: % Control
T25 construct: purchased Millipore KinaseProfiler (kinases); Cerep (receptors and ion channels)

ABL (Q252H) = target: T26, ABL (Q252H) (Homo sapiens, UniProt P00519, Q252H); assay: Millipore kinase panel; type: biochemical; conditions: read-out: % Control
T26 construct: purchased Millipore KinaseProfiler (kinases); Cerep (receptors and ion channels)

CYP450 2B8 = CYP450 2B8 (Homo sapiens, UniProt P20813); assay: CYP450 inhibition
SRC(T341M) = target: T27, SRC(T341M) (Homo sapiens, UniProt P12931, T341M); assay: Millipore kinase panel; type: biochemical; conditions: read-out: % Control
T27 construct: purchased Millipore KinaseProfiler (kinases); Cerep (receptors and ion channels)

PKBBETA = target: T28, PKBBETA (Homo sapiens, UniProt P31751); assay: Millipore kinase panel; type: biochemical; conditions: read-out: % Control
T28 construct: purchased Millipore KinaseProfiler (kinases); Cerep (receptors and ion channels)

PI3 KINASE (P110B/P85B) = target: T29, PI3 KINASE (P110B/P85B) (Mus musculus, UniProt Q8BTI9); assay: Millipore kinase panel; type: biochemical; conditions: read-out: % Control
T29 construct: purchased Millipore KinaseProfiler (kinases); Cerep (receptors and ion channels)

RKO-F1522 cells = assay: EF1-α promoter firefly luciferase control reporter; conditions: Homo sapiens, read-out: IC50, firefly luciferase reporter downstream of the EF1-α promoter
CAMKIIDELTA = target: T30, CAMKIIDELTA (Homo sapiens, UniProt Q13557); assay: Millipore kinase panel; type: biochemical; conditions: read-out: % Control
T30 construct: purchased Millipore KinaseProfiler (kinases); Cerep (receptors and ion channels)

CHK2(I157T) = target: T31, CHK2(I157T) (Homo sapiens, UniProt O96017, I157T); assay: Millipore kinase panel; type: biochemical; conditions: read-out: % Control
T31 construct: purchased Millipore KinaseProfiler (kinases); Cerep (receptors and ion channels)

hERG = hERG (Homo sapiens, UniProt Q12809); assay: hERG inhibition
CYP450 2D6 = CYP450 2D6 (Homo sapiens, UniProt P10635); assay: CYP450 inhibition; type: in vitro ADME
FMS(Y969C) = target: T32, FMS(Y969C) (Homo sapiens, UniProt P07333, Y969C); assay: Millipore kinase panel; type: biochemical; conditions: read-out: % Control
T32 construct: purchased Millipore KinaseProfiler (kinases); Cerep (receptors and ion channels)

P70S6K = target: T33, P70S6K (Homo sapiens, UniProt P23443); assay: Millipore kinase panel; type: biochemical; conditions: read-out: % Control
T33 construct: purchased Millipore KinaseProfiler (kinases); Cerep (receptors and ion channels)

ABL (M351T) = target: T34, ABL (M351T) (Homo sapiens, UniProt P00519, M351T); assay: Millipore kinase panel; type: biochemical; conditions: read-out: % Control
T34 construct: purchased Millipore KinaseProfiler (kinases); Cerep (receptors and ion channels)

PKCGAMMA = target: T35, PKCGAMMA (Homo sapiens, UniProt P05129); assay: Millipore kinase panel; type: biochemical; conditions: read-out: % Control
T35 construct: purchased Millipore KinaseProfiler (kinases); Cerep (receptors and ion channels)

T1 sequence (Q9BZL6 whole entry): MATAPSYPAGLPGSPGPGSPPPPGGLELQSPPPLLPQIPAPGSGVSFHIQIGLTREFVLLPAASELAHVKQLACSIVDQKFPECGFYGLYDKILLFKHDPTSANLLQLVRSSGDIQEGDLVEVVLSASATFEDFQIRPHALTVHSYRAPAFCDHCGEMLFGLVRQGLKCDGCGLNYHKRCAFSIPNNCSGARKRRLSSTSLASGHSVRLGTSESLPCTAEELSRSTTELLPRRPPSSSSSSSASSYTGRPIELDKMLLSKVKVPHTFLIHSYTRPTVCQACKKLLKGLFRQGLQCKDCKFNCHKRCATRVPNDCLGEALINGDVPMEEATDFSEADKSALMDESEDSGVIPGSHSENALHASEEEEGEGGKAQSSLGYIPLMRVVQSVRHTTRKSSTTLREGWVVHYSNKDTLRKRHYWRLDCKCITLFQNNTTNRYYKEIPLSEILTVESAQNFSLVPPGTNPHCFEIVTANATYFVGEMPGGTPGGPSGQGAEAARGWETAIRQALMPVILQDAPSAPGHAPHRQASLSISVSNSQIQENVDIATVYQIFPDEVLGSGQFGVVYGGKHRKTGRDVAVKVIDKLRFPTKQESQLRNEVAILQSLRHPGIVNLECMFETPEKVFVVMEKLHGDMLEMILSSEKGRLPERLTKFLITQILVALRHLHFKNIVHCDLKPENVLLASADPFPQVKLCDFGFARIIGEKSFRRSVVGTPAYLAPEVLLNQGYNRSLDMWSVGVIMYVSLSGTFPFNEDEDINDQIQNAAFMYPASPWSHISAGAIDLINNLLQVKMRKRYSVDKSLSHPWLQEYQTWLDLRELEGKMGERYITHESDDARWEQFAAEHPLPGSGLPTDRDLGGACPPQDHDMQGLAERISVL

| Structure (SMILES) | remaining activity at 1 µM (PKD2) | remaining activity at 1 µM (CDK7/CYCLINH/MAT1) | inhibition at 10 µM (5-HT2A (h)) | remaining activity at 1 µM (PAK5) | remaining activity at 1 µM (EGFR) | remaining activity at 1 µM (TAO1) | inhibition at 10 µM (NTS1 (NT1) (h)) | % Inhibition of Control Specific Binding (SKCa channel) | remaining activity at 1 µM (DYRK2) | remaining activity at 1 µM (PAK6) | remaining activity at 1 µM (CDK3/CYCLINE) | remaining activity at 1 µM (FGFR2) | remaining activity at 1 µM (PKG1ALPHA) | remaining activity at 1 µM (DCAMKL2) | remaining activity at 1 µM (FLT3) | remaining activity at 1 µM (PTK5) | remaining activity at 1 µM (ULK2) | inhibition at 10 µM (M2 (h)) | further results |
| --- | --- | --- | --- | --- | --- | --- | --- | --- | --- | --- | --- | --- | --- | --- | --- | --- | --- | --- | --- |
| O=C1NCCC12CCN(c1c(Cl)cncc1-c1ccc(N3CCOCC3)cc1)CC2 [Compound 44, 8-(3-Chloro-5-(4-morpholin-4-ylphenyl)pyridin-4-yl)-2,8-diazaspiro[4.5]decan-1-one] | 0% | -10% | -1% | 8% | 5% | -2% | -4% | -6% | 9% | 13% | -7% | -6% | 8% | 0% | -7% | 0% | 10% | 24% | microsomal CLint at 1 μM (Clint determination): 290 µL/min/mg; remaining activity at 1 µM (DRAK1): 4%; remaining activity at 1 µM (ACK1): 0%; remaining activity at 1 µM (GSK3ALPHA): -39%; remaining activity at 1 µM (PAK3): 17% |
| Cn1cc(-c2ccc(-c3cncc(Cl)c3N3CCC4(CCNC4=O)CC3)cc2)cn1 [Compound 74, 8-(3-Chloro-5-(4-(1-methyl-1H-pyrazol-4-yl)phenyl)pyridin-4-yl)-2,8-diazaspiro[4.5]decan-1-one] | 7% | 4% | 1% | 4% | 10% | -14% | -8% | 3% | -9% | -2% | 1% | -6% | 0% | 1% | -9% | -18% | -2% | 38% | remaining activity at 1 µM (CK1DELTA): 5%; remaining activity at 1 µM (PKCIOTA): -25%; remaining activity at 1 µM (MTOR/FKBP12): 11%; remaining activity at 1 µM (PKCETA): -13%; remaining activity at 1 µM (ABL (Q252H)): -1%; IC50 (CYP450 2B8): > 20 µM; remaining activity at 1 µM (SRC(T341M)): -6%; remaining activity at 1 µM (PKBBETA): -13%; remaining activity at 1 µM (PI3 KINASE (P110B/P85B)): -1%; IC50 (RKO-F1522 cells): > 10 µM; remaining activity at 1 µM (CAMKIIDELTA): 4%; remaining activity at 1 µM (CHK2(I157T)): 2%; IC50 (hERG): > 10 µM; IC50 (CYP450 2D6): > 20 µM; remaining activity at 1 µM (FMS(Y969C)): -31%; remaining activity at 1 µM (P70S6K): -15%; remaining activity at 1 µM (ABL (M351T)): 5%; remaining activity at 1 µM (PKCGAMMA): 2% |
